Experimental data as given in US10851075B2, “Stat3 pathway inhibitors and cancer stem cell inhibitors” (Sumitomo Dainippon Pharma Oncology, Inc., priority 2007, dated 2020).
pIC50: −log10 of the molar value. Entries after “also recorded” stand apart in the source; their conditions may differ. Where two headings read alike, the source gives them in different places.

Experiments:
CD44^low FaDu cells = test: Anti-CSC MTT assay, CD44low FaDu cells; assay type: cell-based; settings: Homo sapiens, 48 h
[1] = biological target: T1, Stat3 DNA-binding activity (Homo sapiens, UniProt P40763); test: Stat3 DNA binding assay (EMSA), HeLa nuclear extract; assay type: biochemical; settings: for inhibition % 1 × MTT IC50: compound at 1 × MTT IC50, untreated Stat3 retarded band set as 100; for inhibition % 3 × MTT IC50: compound at 3 × MTT IC50, untreated Stat3 retarded band set as 100
T1 construct: endogenous in cells; host or cells: HeLa cells (nuclear extract)
Protocol: STAT3 DNA Binding Assay: Electrophoretic mobility shift assay (EMSA) was performed as described by the manufacturer (Li-Cor Biosciences, Lincoln, Nebr.). Briefly, nuclear extracts were made from HeLa cells using the NucBuster Protein Extraction Kit as described by the manufacturer (EMD Biosciences, San Diego, Calif.). 5 μg of nuclear extract was pre-incubated with the indicated dose of indicated compound for 30 minutes prior to a 15-minute incubation with the IR700-labeled consensus Stat3 oligonucleotide. Samples were then electrophoresed on a polyacrylamide gel and directly scanned using the Odyssey infrared imaging system (Li-Cor Biosciences). For the enzyme-linked immunosorbent assay (ELISA), 5 μg of nuclear extract was preincubated with indicated concentration of indicated compound for 30 minutes prior to the addition of biotinylated oligo (5′-Biotin-[…]-3′). Stat3-DNA complexes were then captured on streptavidin coated 96 well plates (Pierce, Rockford, Ill.). Bound complexes were then incubated with Stat3 polyclonal antibody (Santa Cruz Biotechnology, Santa Cruz, Calif.) followed by anti-rabbit HRP conjugated secondary antibody (GE Healthcare, Pittsburgh, Pa.). Bound antibody was then visualized by addition of TMB substrate (Pierce) and absorbance measured at 450 nm.
Inhibition of Stat3 DNA-binding activity. Nuclear extracts from HeLa cells, which contain constitutively activated Stat3 as detected by phoshporylation at the tyrosine 705 residue, were used to perform Stat3 EMSAs to monitor Stat3 DNA binding activity. Nuclear extracts were incubated with indicated compound prior to incubation with IR700-labeled Stat3 consensus oligonucleotide. Binding of Stat3 to the oligonucleotide was monitored by gel electrophoresis and detection using a LiCor Odyssey infrared scanner.
To calculate the inhibition %, the density of the untreated Stat3 retarded band (control) was set as 100 and the inhibition % was the difference between the control and the relative DNA binding activity of the drug-treated samples.

CD44^high FaDu cells = test: Anti-CSC MTT assay, CD44high FaDu cells; assay type: cell-based; settings: Homo sapiens, 48 h
Protocol: (§1) Cell Viability Determination: For 3-(4,5 dimethylthiazol-2-yl)-2,5-diphenyltetrazolium (MTT) (Sigma-Aldrich, St. Louis, Mo.) analysis, cells were plated in 96 well plates at 10,000 cells per well. 24 hours after plating, compound was added to cells at indicated doses. 22 hours following compound addition, MTT was added to each well (0.5 mg/ml, final concentration) and plates were incubated for an additional 2 hours at 37° C., Medium was then aspirated and the formazan product was solubilized in 100 μl of isopropyl alcohol. The absorbance of each well was measured at 570 nm using a microplate reader.
CD44^high cells were isolated by FACS according to the methods described in Ponti et al., with slight modification. Briefly, after trypsinization and recovery of cells for 30 minutes at 37° C. in growth media, cells were pelleted at 400×g and were resuspended in PBS with 2% FBS and 1 mM EDTA at 1×10^6 cells/mL. Cells were then incubated on ice with a 1:100 dilution of CD44-FITC (BD Biosicences, San Diego, Calif.) for 15 minutes. Alternatively, CD24-PE (BD Bioscences, San Diego, Calif.) (1:100) was utilized for negative selection. After washing three times, cells were resuspended at 2×10^6/mL and passed through a […] mesh before sorting
(§2) In order to test compounds for anti-CSC activity, freshly isolated CSCs (SW480 Hoechst SP cells or CD44^high FaDu cells) were exposed to a dose range (30-0.117 μM) of compound for 48 h before examining cell viability by MTT assay. IC50s were estimated by plotting the percentage of surviving cells. As shown in Table 7 and Table 8, the compounds of present invention can target cancer stem cells.

DU145 cells = test: MTT cell viability, DU145; assay type: cell-based; settings: Homo sapiens, DU-145, MTT at 24 hours; for IC50: DU145, Table 4, read-out: IC50 (μM) DU145; for pIC50: DU145, Prostate, Table 3, read-out: IC50
Source text: (§3) Cell Culture: HeLa, DU145, H1299, DLD1, SW480, A549, MCF7, LN18, HCT116, HepG2, Paca2, Panel, LNcap, FaDu, HT29, and PC3 cells (ATCC, Manassas, Va.) were maintained in Dulbecco's Modified Eagle Medium (DMEM) (Invitrogen, Carlsbad, Calif.) supplemented with 10% fetal bovine serum (MS) (Gemini Bio-Products, West Sacramento, Calif.) and 5% penicillin/streptomycin/amphotercin B (Invitrogen).
as §1
(§4) Identification of compounds that are apoptotic to a broad spectrum of cancer cells in vitro. Cells plated in 96 well plates and treated with indicated compounds were subjected to MTT analysis at 24 hours following compound treatment to determine cell viability.

HeLa cells = test: MTT cell viability, HeLa; assay type: cell-based; settings: Homo sapiens, MTT at 24 hours; for IC50: Hela, Table 4, read-out: IC50 (μM) Hela; for pIC50: HeLa, Cervix, Table 3, read-out: IC50
Source text: as §3, §1, §4

H1299 cells = test: MTT cell viability, H1299; assay type: cell-based; settings: Homo sapiens, NCI-H1299, MTT at 24 hours; for IC50: H1299, Table 4, read-out: IC50 (μM) H1299; for pIC50: H1299, Lung, Table 3, read-out: IC50
Source text: as §3, §1, §4

SW480 Hoechst SP cells = test: Anti-CSC MTT assay, SW480 Hoechst side population (SP) cells; assay type: cell-based; settings: Homo sapiens, 48 h
Protocol: as §1
(§5) Hoechst Side Population: To identify and isolate side population (SP) and non-SP fractions, SW480 cells were removed from the culture dish with trypsin and EDTA, pelleted by centrifugation, washed with phosphate-buffered saline (PBS), and resuspended at 37° C. in Dulbecco's modified Eagle's medium (DMEM) containing 2% FBS and 1 rnM HEPES. The cells were then labeled with Hoechst 33342 (Invitrogen) at a concentration of 5 μg/mL. The labeled cells were incubated for 120 minutes at 37° C., either alone or with 50 μM verapamil (Sigma-Aldrich, St. Louis). After staining, the cells were suspended in Hanks' balanced saline solution (MISS; Invitrogen) containing 2% FBS and 1 mM HEPES, passed a through 40 μm mesh filter, and maintained at 4° C. until flow cytometry analysis. The Hoechst dye was excited at 350 nm, and its fluorescence was measured at two wavelengths using a 450 DF10 (450/20 nm band-pass filter) and a 675LP (675 nm long-pass edge filter) optical filter. The gating on forward and side scatter was not stringent, and only debris was excluded.
as §2

SW480 NSP cells = test: Anti-CSC MTT assay, SW480 non-SP (NSP) cells; assay type: cell-based; settings: Homo sapiens, 48 h
Protocol: as §1, §5, §2

FaDu cells = test: MTT cell viability, FaDu; assay type: cell-based; settings: Homo sapiens, MTT at 24 hours; for IC50: Table 4, read-out: IC50 (μM) FaDu
Source text: as §3, §1, §4

HCT116 cells = test: MTT cell viability, HCT116; assay type: cell-based; settings: Homo sapiens, HCT-116; HCT116, Colon; MTT at 24 hours; Table 3
Source text: as §3, §1, §4

Panc1 cells = test: MTT cell viability, Panc1; assay type: cell-based; settings: Homo sapiens, PANC-1; Panc1, Pancreas; MTT at 24 hours; Table 3
Source text: as §3, §1, §4

SW480 cells = test: MTT cell viability, SW480; assay type: cell-based; settings: Homo sapiens; SW480, Colon; MTT at 24 hours; Table 3
Source text: as §3, §1, §4

PC3 cells = test: MTT cell viability, PC3; assay type: cell-based; settings: Homo sapiens, PC-3; PC3, Prostate; MTT at 24 hours; Table 3
Source text: as §3, §1, §4

HT29 cells = test: MTT cell viability, HT29; assay type: cell-based; settings: Homo sapiens, HT-29; HT29, Colon; MTT at 24 hours; Table 3
Source text: as §3, §1, §4

DLD1 cells = test: MTT cell viability, DLD1; assay type: cell-based; settings: Homo sapiens, DLD-1; DLD1, Colon; MTT at 24 hours; Table 3
Source text: as §3, §1, §4

HepG2 cells = test: MTT cell viability, HepG2; assay type: cell-based; settings: Homo sapiens; HepG2, Liver; MTT at 24 hours; Table 3
Source text: as §3, §1, §4

MCF7 cells = test: MTT cell viability, MCF7; assay type: cell-based; settings: Homo sapiens; MCF7, Breast; MTT at 24 hours; Table 3
Source text: as §3, §1, §4

Paca2 cells = test: MTT cell viability, Paca2; assay type: cell-based; settings: PaCa-2; Paca2, Pancreas; MTT at 24 hours; Table 3
Source text: as §3, §1, §4

A549 cells = test: MTT cell viability, A549; assay type: cell-based; settings: Homo sapiens; A549, Lung; MTT at 24 hours following compound treatment; Table 3
Source text: as §3, §1, §4

LNCap cells = test: MTT cell viability, LNCap; assay type: cell-based; settings: Homo sapiens, Prostate, MTT at 24 hours, Table 3
Source text: as §3, §1, §4

[2] = test system: Stat3 transcription activity; test: Stat3-luciferase (Stat3-Luc) reporter assay in HeLa cells, OSM stimulated; assay type: cell-based; settings: Homo sapiens, compound 30 minutes before 25 ng/ml oncostatin M, 6 hours, read-out: IC50 in Stat3-Luc assays
Protocol: Luciferase Reporter Assay: HeLa Cells were co-transfected with Stat3-luciferase (Stat3-Luc) reporter vector (Panomics, Fremont, Calif.) and Renilla luciferase (Promega, Madison, Wis.) using Lipofectamine 2000 as described by the manufacturer (Invitrogen). Following transfection, cells were maintained in medium containing 0.5% FBS for 24 hours. Cells were then treated with the indicated compound for 30 minutes prior to the addition of 25 ng/ml oncostatin M (OSM) (R&D Systems, Minneapolis, Minn.) to the medium. 6 hours following OSM addition, cells were harvested and levels of firefly and renilla luciferase were measured using the Dual-Glo Luciferase Assay System as described by the manufacturer (Promega).
Inhibition of Stat3 transcription activity. Compounds were tested for their ability to inhibit Stat3 transcription activation activity in cells using a Stat3-luciferase (Stat3-luc) reporter construct. Cells transfected with Stat3-luc were cultured in reduced serum medium prior to addition of indicated compound for 30 minutes. Cells were then stimulated with 25 ng/ml oncostatin (OSM) for 6 hours followed by detection of Stat3-luc reporter activity.

T1 sequence (P40763 whole entry): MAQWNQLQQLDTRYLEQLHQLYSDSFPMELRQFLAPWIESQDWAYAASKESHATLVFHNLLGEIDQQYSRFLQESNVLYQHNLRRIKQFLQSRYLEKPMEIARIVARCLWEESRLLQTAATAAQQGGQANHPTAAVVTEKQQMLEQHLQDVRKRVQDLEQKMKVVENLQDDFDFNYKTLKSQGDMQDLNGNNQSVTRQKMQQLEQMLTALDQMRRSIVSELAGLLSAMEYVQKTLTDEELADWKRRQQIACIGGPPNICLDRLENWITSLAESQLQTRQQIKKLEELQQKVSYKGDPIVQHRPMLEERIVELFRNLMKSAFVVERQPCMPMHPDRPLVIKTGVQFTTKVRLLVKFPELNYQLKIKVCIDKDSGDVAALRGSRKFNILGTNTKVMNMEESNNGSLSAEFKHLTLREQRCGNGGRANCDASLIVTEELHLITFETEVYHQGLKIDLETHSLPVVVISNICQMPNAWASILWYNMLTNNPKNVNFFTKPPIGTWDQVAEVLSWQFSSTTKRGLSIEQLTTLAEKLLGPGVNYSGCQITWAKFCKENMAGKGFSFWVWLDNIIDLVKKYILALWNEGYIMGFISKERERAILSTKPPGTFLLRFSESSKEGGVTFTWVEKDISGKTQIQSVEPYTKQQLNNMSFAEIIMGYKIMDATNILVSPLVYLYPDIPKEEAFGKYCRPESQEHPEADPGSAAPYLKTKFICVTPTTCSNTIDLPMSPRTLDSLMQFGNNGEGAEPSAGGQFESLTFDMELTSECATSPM

SMILES	inhibition % 1 × MTT IC50 [1] [%]	inhibition % 3 × MTT IC50 [1] [%]	IC50 (DU145 cells) [µM]	IC50 (HeLa cells) [µM]	IC50 (H1299 cells) [µM]	IC50 (SW480 Hoechst SP cells) [µM]	IC50 (SW480 NSP cells) [µM]	pIC50 (HCT116 cells)	pIC50 (Panc1 cells)	pIC50 (SW480 cells)	pIC50 (PC3 cells)	pIC50 (H1299 cells)	pIC50 (HT29 cells)	pIC50 (DLD1 cells)	pIC50 (DU145 cells)	pIC50 (HeLa cells)	pIC50 (MCF7 cells)	IC50 (CD44^low FaDu cells) [µM]	IC50 (CD44^high FaDu cells) [µM]	pIC50 (Paca2 cells)	other results
O=C1c2ccccc2C(=O)c2oc(C(O)c3ccccc3)cc21 (centres unmarked) [Compound 302]	6	25	4.9	7.8	7.2	2.06	1.29	–	–	–	–	–	–	–	–	–	–	3.68	0.68	–	–
CC(O)c1cc2c(o1)C(=O)c1cc(F)ccc1C2=O (centres unmarked) [Compound 304]	25	55	1.84	1.67	–	–	–	–	–	–	–	–	–	–	–	–	–	2.49	2.41	–	–
CC(=O)c1cc2c(o1)C(=O)c1ccccc1C2=O [Compound 401]	–	–	0.116	0.428	0.234	0.34	0.33	6.24	5.77	6.49	5.63	6.64	5.90	6.48	6.92	6.37	6.34	–	–	6.96	pIC50 (FaDu cells; Head and Neck, Table 3, read-out: IC50): 6.41; IC50 (FaDu cells): 0.39 µM; inhibition of Stat3 DNA binding (in words) ([1]; HeLa nuclear extract, FIG. 6A/6B): Dose dependent inhibition of Stat3 DNA binding; also recorded: inhibits Stat3 DNA-binding activity; pIC50 (HepG2 cells): 6.60; pIC50 (A549 cells): 6.02; pIC50 (LNCap cells): 6.20
O=C(c1ccccc1)c1cc2c(o1)C(=O)c1ccccc1C2=O [Compound 412]	–	–	0.327	1.69	0.524	–	–	5.69	5.43	5.88	5.35	6.28	5.33	5.95	6.48	5.77	5.94	–	–	6.19	pIC50 [2]: ~6.12; pIC50 (A549 cells): 5.50
CC(=O)c1oc2c(c1CBr)C(=O)c1ccccc1C2=O [Compound 420]	47	63	–	–	–	0.59	0.51	–	–	–	–	–	–	–	–	–	–	–	–	–	IC50 (FaDu cells): 3.5 µM

Further compounds by falling IC50 (DU145 cells), results first:

inhibition % 1 × MTT IC50 [1] [%]	inhibition % 3 × MTT IC50 [1] [%]	IC50 (DU145 cells) [µM]	IC50 (HeLa cells) [µM]	IC50 (H1299 cells) [µM]	IC50 (SW480 Hoechst SP cells) [µM]	IC50 (SW480 NSP cells) [µM]	pIC50 (HCT116 cells)	pIC50 (Panc1 cells)	pIC50 (SW480 cells)	pIC50 (PC3 cells)	pIC50 (H1299 cells)	pIC50 (HT29 cells)	pIC50 (DLD1 cells)	pIC50 (DU145 cells)	pIC50 (HeLa cells)	pIC50 (MCF7 cells)	SMILES	IC50 (CD44^low FaDu cells) [µM]	IC50 (CD44^high FaDu cells) [µM]	pIC50 (Paca2 cells)	other results
50	46	2.65	4.56	–	–	–	–	–	–	–	–	–	–	–	–	–	C=Cc1cc2c(o1)C(=O)c1cc(F)ccc1C2=O [Compound 202]	2.25	2.4	–	–
39	63	0.164	0.488	0.317	0.34	0.33	6.21	5.81	6.12	5.52	6.47	5.74	6.19	6.74	6.10	6.34	CC(=O)c1cc2c(o1)C(=O)c1cc(F)ccc1C2=O [Compound 418]	–	–	6.68	pIC50 (A549 cells): 5.97
